Ends that are not written are not given here.
Columns and labels:
Lbc = molecular target: T1, Lbc (Homo sapiens, UniProt Q12802); details: shown previously (Schmidt et al., 2002 and unpublished results); cited from earlier work
T1 construct: GST-Dbl (DH-PH domain), GST-Lbc (DH-PH), GST-p63RhoGEF (DH domain) and GST-RhoG were purified as described previously; GST (N); made in house
T1 sequence (Q12802 1994-2333): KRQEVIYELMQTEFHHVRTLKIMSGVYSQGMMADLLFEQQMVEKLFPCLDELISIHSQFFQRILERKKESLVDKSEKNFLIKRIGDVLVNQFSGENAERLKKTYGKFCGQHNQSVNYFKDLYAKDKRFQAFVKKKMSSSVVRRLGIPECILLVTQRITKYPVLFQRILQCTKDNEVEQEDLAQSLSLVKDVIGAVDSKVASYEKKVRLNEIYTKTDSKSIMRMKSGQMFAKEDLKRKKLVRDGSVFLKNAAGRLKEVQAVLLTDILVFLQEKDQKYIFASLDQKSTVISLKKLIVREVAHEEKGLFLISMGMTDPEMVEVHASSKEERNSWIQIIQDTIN

Dbl [1] = details: shown previously (Schmidt et al., 2002 and unpublished results); cited from earlier work
Chain of Dbl (P10911 495-809 limits assumed): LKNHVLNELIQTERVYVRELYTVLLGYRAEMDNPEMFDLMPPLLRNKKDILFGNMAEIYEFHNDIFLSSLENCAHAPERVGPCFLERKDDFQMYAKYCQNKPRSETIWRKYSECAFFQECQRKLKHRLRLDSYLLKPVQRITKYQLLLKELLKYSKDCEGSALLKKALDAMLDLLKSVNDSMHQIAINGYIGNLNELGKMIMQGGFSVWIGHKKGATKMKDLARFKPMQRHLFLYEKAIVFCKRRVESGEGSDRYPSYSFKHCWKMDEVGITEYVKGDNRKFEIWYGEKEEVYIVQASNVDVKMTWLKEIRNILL

p63RhoGEF = molecular target: T2, p63RhoGEF (Homo sapiens, UniProt Q86VW2); details: shown previously (Schmidt et al., 2002 and unpublished results); cited from earlier work
T2 construct: GST-p63RhoGEF (DH domain) and GST-RhoG were purified as described previously; GST (N); made in house
T2 sequence (Q86VW2 160-336 limits assumed): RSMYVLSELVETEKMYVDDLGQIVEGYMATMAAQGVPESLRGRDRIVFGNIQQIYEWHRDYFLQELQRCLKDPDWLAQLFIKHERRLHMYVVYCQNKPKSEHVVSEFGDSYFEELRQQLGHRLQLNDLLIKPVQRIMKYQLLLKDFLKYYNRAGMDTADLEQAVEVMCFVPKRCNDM

Trio DH2-PH2 = molecular target: T3, Trio DH2-PH2 (Homo sapiens, UniProt O75962); assay: Yeast two-hybrid screening for binding to Trio DH2-PH2; details: 3-AT 80-120 mM
T3 construct: made in house
Source text: The inventors next reasoned that peptides that would bind stronger to the GEF domain may also be better at inhibiting its activity. The inventors thus generated a library of peptide aptamers derived from TRIPα by random mutagenesis, which the inventors screened for GEF binding in a yeast two-hybrid assay. The inventors chose a system in which the threshold of interaction detection can be modulated by the concentration of the 3-aminotriazole (3-AT) drug (Sardet et al., 1995). Since Tgat is toxic in yeast, the inventors used Trio DH2-PH2 to screen this TRIP-like peptide library. […] These clones were then produced as GST fusions and analyzed for their inhibition of Trio DH2-PH2, using the [3H]-GDP dissociation assay.
An aptamer library derived from TRIPα was created by PCR-based random mutagenesis of TRIPα inserted into the yeast two-hybrid vector pPC86. Sequencing of a statistically representative number of clones yielded a mutation rate of ˜3 mutations/clone. 6×10^5 independent clones were screened for interactors, using Trio DH2-PH2 (in the pPC97 vector) as a bait, in the MAV 103 yeast strain, on high concentrations of 3-AT (3-amino-triazol, Sigma) (80-120 mM). Selected peptides were then produced as GST-fusions and analyzed for their inhibition of Trio DH2-PH2 using the [3H]-GDP dissociation assay.

[2] = tested on: NIH3T3 cells stably expressing GFP-Tgat; assay: Tumor formation in Balb/c nude mice grafted with NIH3T3 cells expressing Tgat; type: in vivo
Experimental: FIG. 10A represents tumor formation in Balb/c nude mice. NIH3T3 cells stably expressing GFP-Tgat/GST or GFP-Tgat/GSTTRIP E32G were injected subcutaneously into the flanks of Balb/c nude mice and tumor volume was measured every week. The graph is representative of the three independent assays that were performed.
FIG. 10B represents the tumor weights (in grams) after the experiments. Ten weeks post graft, mice were euthanised, tumors were excised and weighed, and the mean tumor weight was plotted on the graph. (*) A paired Student's t-test was performed, matching the samples for each mouse, and the P value was 0.019. Error bars represent standard deviation in all graphs.
Female Balb/c nu/nu mice were purchased from Charles River France and used at 6-8 weeks of age. 12 Balb/c nu/nu mice were subcutaneously grafted with 2×10^6 cells of each cell line on both sides (Tgat on the left and Tgat+TRIPE32G on the right flank of the leg). The appearance of tumors was scored visually every week. 10 weeks post graft, mice were euthanized and tumors excised and weighed. mRNA and protein levels in the tumors were verified by RT-PCR and Western blot (data not shown).

[3] = tested on: Dbl mediated RhoA activation; assay: RhoA activation assay (GST-RBD pull-down) in NIH3T3 cells expressing Dbl; type: cell-based; details: GFP-tagged peptide
Experimental: FIG. 8 represents the effect of GFP-TRIPE32G on RhoA activation induced by Dbl (left panel) or Tgat (right panel) in NIH3T3 cells, assayed by GST-RBD pulldown. The levels of GTP-bound and total RhoA protein are shown in the upper two panels. Expression levels of Myc-Dbl and of all GFP-tagged proteins are shown in the lower two panels.
The level of GTP-bound RhoA was measured by a GST pulldown assay as described (Schmidt et al., 2002). Briefly, cell lysates were incubated with glutathione beads coated with the recombinant Rho-binding domain (RBD) of the RhoA specific effector Rhotekin (Cytoskeleton Inc.).

Dbl [4] = assay: mant-GTP fluorescence kinetics specificity assay, RhoA/Dbl; type: biochemical; details: peptide 20 μM, 1 μM RhoA
Experimental: Figures represent the comparison of TRIPE32G and TRIPT16M/L17S inhibition efficiency on different GTPase/RhoGEF systems, using 1 μM GTPase and 0.5 μM GEF as follows:
In each assay, the peptides were used at a concentration of 20 μM, corresponding to a 40 fold molar excess of inhibitor versus GEF. All fluorescence kinetics assays were performed using 1 μM mant-GTP. Results are expressed as Relative Fluorescence Units (RFU) versus time. The reaction performed in the absence of GEF reflects the spontaneous exchange activity of the GTPase.
Radioactive [3H]-GDP dissociation assays were performed as described (Schmidt et al., 2002). […] Inhibition efficiency is expressed as the ratio between [3H]-GDP-bound RhoA at 15 and 0 min. Apparent inhibition constants (Kiapp) of TRIP-like peptides were determined from kobs values obtained at increasing peptide concentrations using the above fluorescence nucleotide exchange assay. Kiapp was calculated from the hyperbolic fit of kobs values as a function of the inhibitor concentration as described (Zeeh et al., 2006). TRIP-like peptide specificity was assayed using mant-GTP fluorescence kinetics (λex=360 nm, λem=460 nm) in a FLX800 Microplate Fluorescence Reader (BioTek Instruments). […] The exchange reaction was initiated by addition of 1 μM RhoA or RhoG and monitored for 10 min.

| Substance | activity on Lbc (Lbc) | activity on Dbl (Dbl [1]) | activity on p63RhoGEF (p63RhoGEF) | interaction with Trio DH2-PH2 in yeast two-hybrid assay (Trio DH2-PH2) | number of mice with tumors ([2]; 12 mice grafted subcutaneously, peptide co-expressed with Tgat, Tgat alone ten out of twelve) | delay in the formation of tumors ([2]; peptide co-expressed with Tgat, versus Tgat alone) | weight of the tumors ([2]; ten weeks post graft, paired Student's t-test P value 0.019) | inhibition of oncogenic Dbl mediated RhoA activation in intact cells [3] | effect on exchange activity of Dbl/RhoA (Dbl [4]) |
| --- | --- | --- | --- | --- | --- | --- | --- | --- | --- |
| AREGADGAICGYNLATLVMLGPSERVFCPLCEPCSSDIYELM [TRIPα] | not active | not active | not active | no interaction |  |  |  |  |  |
| GST-TRIPE32G (AREGADGAICGYNLATLVMLGPSERVFCPLCGPCSSDIYELM; cysteine pairing not given here; also: GST fusion) |  |  |  |  | seven | about three | significantly reduced | not able to inhibit RhoA activation by Dbl | no effect |
| GST-TRIPT16M/L17S |  |  |  |  |  |  |  |  | no effect |
